We go through 19 compounds from publication PMC7817688, “Identification of 3-chymotrypsin like protease (3CLPro) inhibitors as potential anti-SARS-CoV-2 agents” (Communications Biology, 2021).

In this assay the target is SARS-CoV-2 3CLpro enzyme (Severe acute respiratory syndrome coronavirus 2, UniProt P0DTD1). Put plainly: biochemical. Particulars: for percent enzymatic activity, individual values / percent enzymatic activity, AVG / inhibition at 50 µM: 50 µM drug; for percent enzymatic activity, individual values / percent enzymatic activity, AVG: DMSO treated control = 100%, data of Figs. 2-4; for percent enzymatic activity, AVG: mean of 3 values; for activity at 0.097656 µM / activity at 0.195313 µM / activity at 0.390625 µM / activity at 0.78125 µM / activity at 1.5625 µM / activity at 3.125 µM / activity at 6.25 µM / activity at 12.5 µM / activity at 100 µM: read-out: % activity; for inhibitory effect towards 3CLpro enzymatic activity (in words): in vitro enzymatic assay at the tested doses.

The mark [1] stands for this setting: dose-dependent study, 0.048828 uM, individual values.
The mark [2] stands for this setting: dose-dependent study, 0.097656 uM, individual values.
Setting [3] is: dose-dependent study, 0.195313 uM, individual values.
The mark [4] stands for this setting: dose-dependent study, 0.390625 uM, individual values.
Where [5] appears, read: dose-dependent study, 0.78125 uM, individual values.
[6] abbreviates: dose-dependent study, 1.5625 uM, individual values.
[7] abbreviates: dose-dependent study, 3.125 uM, individual values.
Where [8] appears, read: dose-dependent study, 6.25 uM, individual values.
The mark [9] stands for this setting: dose-dependent study, 12.5 uM, individual values.
Setting [10] is: dose-dependent study, 25 uM, individual values.
Setting [11] is: dose-dependent study, 50 uM, individual values.
[12] abbreviates: dose-dependent study, 100 uM, individual values.
Where [13] appears, read: read-out: inhibition of 3CLpro enzymatic activity.

Molecules are shown by their SMILES. “And” between values parts separate entries of the source, which are not always exact repeats. Identical values can stand only once. Numbered stars: 1 amine (or outer) side, 2 acyl side, 3 side chain; on linkers, the order of the positions; unused ones are H or OH. Bridge positions count the residues as written; N and C are the ends. Square brackets hold non-standard residues; d marks the D form. Peptide text beside a SMILES is read from it. * marks the point of attachment. hTyr(3S-OH,4S-OH,3'-OSO3H) = N[C@H](C(=O)O)[C@H](O)[C@@H](O)c1ccc(O)c(OS(=O)(=O)O)c1; Orn(4R-OH,5R-OH) = O=C([C@H](C[C@@H](O)[C@@H](O)N[*:3])N[*:1])[*:2]; Pro(3S-OH,4S-Me) = C[C@H]1CN[C@H](C(=O)O)[C@H]1O; X1 = CCCCCOc1ccc(-c2cc(-c3ccc(C(=O)*)cc3)no2)cc1; Gln(3R-OH) = NC(=O)C[C@@H](O)[C@H](N)C(=O)O; Hyp = O=C(O)[C@@H]1C[C@@H](O)CN1

With `Nc1nc(NC2CC2)c2ncn([C@H]3C=C[C@@H](CO)C3)c2n1` [Abacavir], the “percent enzymatic activity, individual values” was 85.8927% and 88.8256% and 90.5015% (2×); the “percent enzymatic activity, AVG” value was 88.4066%.

Turning to `COC(=O)N[C@H](C(=O)N[C@@H](Cc1ccccc1)[C@@H](O)CN(Cc1ccc(-c2ccccn2)cc1)NC(=O)[C@@H](NC(=O)OC)C(C)(C)C)C(C)(C)C` [Atazanavir], the “percent enzymatic activity, individual values” was 84.3318% and 88.0184% and 91.2442%; the “percent enzymatic activity, AVG” value was found to be 87.8648%.

In the case of `CC(C)c1c(C(=O)Nc2ccccc2)c(-c2ccccc2)c(-c2ccc(F)cc2)n1CC[C@@H](O)C[C@@H](O)CC(=O)O` [Atrovastatin], the “percent enzymatic activity, individual values” is 92.1569% and 107.843% and 99.0196%; the “percent enzymatic activity, AVG” value came to 99.6732%.

Broadly, the inhibition is how much of the control response was suppressed. `CC(C)(C)NC(=O)N[C@H](C(=O)N1C[C@H]2[C@@H]([C@H]1C(=O)NC(CC1CCC1)C(=O)C(N)=O)C2(C)C)C(C)(C)C` (some centres unmarked) [Boceprevir]: the “percent enzymatic activity, individual values” is 54.8875% and 56.5635% and 59.0774%; the “percent enzymatic activity, AVG” value is 56.8428%; the “inhibitory effect towards 3CLpro enzymatic activity (in words)” value was “partial inhibitory effect”. Besides, under setting [1], the “% activity” value was 71.4825% and the activity at 0.048828 µM was 72.9%. Under setting [2], the “% activity” value is 78.9417% and 76.1445%; the activity at 0.097656 µM was determined as 75.2%. Further, under setting [3], the “% activity” value worked out at 74.7459% and the activity at 0.195313 µM worked out at 73.3%. For the same compound, under setting [4], the “% activity” value turned out to be 72.4149% and the activity at 0.390625 µM was determined as 77.1%. Moreover, under setting [5], the “% activity” value is 70.5501% and 71.9487%; the activity at 0.78125 µM stood at 71%. For the same compound, under setting [6], the “% activity” value is 78.9417% and 72.4149%; the activity at 1.5625 µM worked out at 74.3%. For the same compound, under setting [7], the “% activity” value worked out at 84.5361% and the activity at 3.125 µM turned out to be 73.3%. Also, the activity at 6.25 µM under setting [8] came out at 73.8%. Besides, under setting [9], the “% activity” value is 70.0839% and 64.9557%; the activity at 12.5 µM was 61.2%. Further, under setting [10], the “% activity” value is 57.4965% and 56.0979%; the activity at 25 µM amounted to 51.9%. Moreover, under setting [11], the “% activity” value was 41.6457% and 41.1795%; the activity at 50 µM was 37.4%. Also, under setting [12], the “% activity” value is 29.5245% and 31.8555%; the activity at 100 µM worked out at 26.7%. Moreover, the inhibition at 50 µM under setting [13] was determined as 45%.

Consider `CN(C)C(=O)COC(=O)Cc1ccc(OC(=O)c2ccc(NC(=N)N)cc2)cc1` [Camostat], for which the “percent enzymatic activity, individual values” was 94.4701% and 101.843% and 102.304%; the “percent enzymatic activity, AVG” value turned out to be 99.5392%.

Regarding `CCN(CC)CCCC(C)Nc1ccnc2cc(Cl)ccc12` (centres unmarked) [Chloroquine], the “percent enzymatic activity, AVG” value is 100.272%. The “percent enzymatic activity, individual values” (listed as Chloroquine Phosphate) is 103.986% and 93.4637% and 103.367%.

With `CC(C)(C)OC(=O)N[C@H]1CCCCC/C=C\[C@@H]2C[C@@]2(C(=O)NS(=O)(=O)C2CC2)NC(=O)[C@@H]2C[C@@H](OC(=O)N3Cc4cccc(F)c4C3)CN2C1=O` [Danoprevir], the “percent enzymatic activity, individual values” is 70.073% and 72.9927% and 80.6569%; the “percent enzymatic activity, AVG” value came to 74.5742%.

Turning to `CC(C)CN(C[C@@H](O)[C@H](Cc1ccccc1)NC(=O)O[C@H]1CO[C@H]2OCC[C@H]21)S(=O)(=O)c1ccc(N)cc1` [Darunavir], the “percent enzymatic activity, individual values” is 90.3226% and 93.0876% and 98.6175%; the “percent enzymatic activity, AVG” value is reported as 94.0092%.

As for `CC(C)Nc1cccnc1N1CCN(C(=O)c2cc3cc(NS(C)(=O)=O)ccc3[nH]2)CC1` [Delavirdine (mesylate), Delavirdine], the “percent enzymatic activity, individual values” is 93.4344% and 97.6243% and 104.328%; the “percent enzymatic activity, AVG” value amounted to 98.4623%.

For `COc1cc2c(cc1Cc1cccc(Cl)c1F)c(=O)c(C(=O)O)cn2[C@H](CO)C(C)C` [Elvitegravir], the “percent enzymatic activity, individual values” is 78.3509% and 80.4458% and 91.3395%; the “percent enzymatic activity, AVG” value came to 83.3787%.

`Cc1cc(C#N)cc(C)c1Oc1nc(Nc2ccc(C#N)cc2)nc(N)c1Br` [Etravirine]: the “percent enzymatic activity, individual values” is 85.8927% and 97.6243% and 93.0155%; the “percent enzymatic activity, AVG” value is 92.1775%.

In the case of `CO[C@@H]1[C@H](OC(=O)/C=C/C=C/C=C/C=C/C(=O)O)CC[C@]2(CO2)[C@H]1[C@@]1(C)O[C@@H]1CC=C(C)C` [Fumagillin], the “percent enzymatic activity, individual values” was 70.8091% and 76.2559% and 71.647%; the “percent enzymatic activity, AVG” value came to 72.904%.

Turning to `CCOC(=O)c1ccc(OC(=O)CCCCCNC(=N)N)cc1` [Gabexate], the “percent enzymatic activity, individual values” was 88.0184% and 104.147% and 90.7834%; the “percent enzymatic activity, AVG” value was found to be 94.3164%.

For `CC(C)(C)[C@@H]1NC(=O)O[C@@H]2CCC[C@H]2OC/C=C/C(F)(F)c2nc3ccccc3nc2O[C@@H]2C[C@@H](C(=O)N[C@]3(C(=O)NS(=O)(=O)C4(C)CC4)C[C@H]3C(F)F)N(C2)C1=O` [Glecaprevir], the “percent enzymatic activity, individual values” is 92.7616% and 89.3077% and 94.7353%; the “percent enzymatic activity, AVG” value turned out to be 92.2682%.

As for `CCN(CCO)CCCC(C)Nc1ccnc2cc(Cl)ccc12` (centres unmarked) [Hydroxychloroquine], the “percent enzymatic activity, AVG” value was 87.663%. Also, the “percent enzymatic activity, individual values” (listed as Hydrochloroquine) was 83.3868% and 88.8143% and 90.788%.

On to `CCC(C)n1ncn(-c2ccc(N3CCN(c4ccc(OCC5COC(Cn6cncn6)(c6ccc(Cl)cc6Cl)O5)cc4)CC3)cc2)c1=O` (centres unmarked) [Itraconazole], for which the “percent enzymatic activity, individual values” was 81.4131% and 90.2946% and 93.255%; the “percent enzymatic activity, AVG” value is reported as 88.3209%.

On to `Cc1cccc(C)c1OCC(=O)N[C@@H](Cc1ccccc1)[C@@H](O)C[C@H](Cc1ccccc1)NC(=O)[C@H](C(C)C)N1CCCNC1=O` [Lopinavir], for which the “percent enzymatic activity, individual values” was 75.576% and 76.4977% and 84.3318%; the “percent enzymatic activity, AVG” value came to 78.8018%; the “inhibitory effect towards 3CLpro enzymatic activity (in words)” value is reported as “did not exhibit any 3CLpro inhibitory activity”.

For orientation: IC50 means the concentration that gives 50% inhibition. In the case of `CCCCCOc1ccc(-c2cc(-c3ccc(C(=O)N[C@H]4C[C@@H](O)[C@@H](O)NC(=O)[C@@H]5[C@@H](O)[C@@H](C)CN5C(=O)[C@H]([C@H](O)CC(N)=O)NC(=O)[C@H]([C@H](O)[C@@H](O)c5ccc(O)c(OS(=O)(=O)O)c5)NC(=O)[C@@H]5C[C@@H](O)CN5C(=O)[C@H]([C@@H](C)O)NC4=O)cc3)no2)cc1` [Micafungin] (X1-[Orn(4R-OH,5R-OH)]T[Hyp][hTyr(3S-OH,4S-OH,3'-OSO3H)][Gln(3R-OH)][Pro(3S-OH,4S-Me)]; lactam 1-C), the “percent enzymatic activity, individual values” was 37.5856% and 41.7364% and 49.3462%; the “percent enzymatic activity, AVG” value was 42.8894%; the “inhibitory effect towards 3CLpro enzymatic activity (in words)” value was “partial inhibitory effect”. Also, under setting [2], the “% activity” value was 93.428% and 107.627%; the activity at 0.097656 µM came to 103%. Besides, under setting [3], the “% activity” value is 93.921% and 112.575%; the activity at 0.195313 µM is 95.4%. Also, under setting [4], the “% activity” value was 94.414% and 111.957%; the activity at 0.390625 µM came out at 94.9%. Moreover, under setting [5], the “% activity” value was 110.101% and the activity at 0.78125 µM is 101%. Also, under setting [6], the “% activity” value is 99.8373% and 115.049%; the activity at 1.5625 µM amounted to 101%. Under setting [7], the “% activity” value was 103.781% and 119.998%; the activity at 3.125 µM stood at 105%. Moreover, under setting [8], the “% activity” value was found to be 110.101% and the activity at 6.25 µM came out at 105%. For the same compound, under setting [9], the “% activity” value was 103.915% and the activity at 12.5 µM is 92.9%. Moreover, under setting [10], the “% activity” value was 86.0326% and 95.2558%; the activity at 25 µM is 79.6%. Moreover, the “% activity” value under setting [11] is 43.6326% and 50.0419% and 67.4213%. Further, under setting [12], the “% activity” value was 20.9535% and 30.3087%; the activity at 100 µM was 19%. For the same compound, the IC50 (drugs 0 to 100 µM, 50 µM substrate, non-linear four variable fit, read-out: IC50 for SARS-CoV-2 3CL protease) came to 47.6 µM. Also, the inhibition at 50 µM under setting [13] worked out at 57%. Besides, the inhibition at 100 µM (read-out: inhibition of 3CLpro enzymatic activity, 100 µM drug) is ~80%.

In the case of `Cc1c(O)cccc1C(=O)N[C@@H](CSc1ccccc1)[C@H](O)CN1C[C@H]2CCCC[C@H]2C[C@H]1C(=O)NC(C)(C)C` [Nelfinavir], the “percent enzymatic activity, AVG” value stood at 70.5069%. In addition, the “percent enzymatic activity, individual values” (listed as Nilfinavir) is 69.1244% and 72.3502% and 70.0461%.
